Experimental data from patent US20260285850A1, “SUBSTITUTED OXAZOLIDINONES AND IMIDAZOLINONES AS HERBICIDES” (FMC CORPORATION, priority 2023, published 2026).

Columns and labels:
Format in all cases: in vivo
[1] = tested on: sedge, umbrella (small-flower umbrella sedge, Cyperus difformis); test: Test B flooded paddy test, visual plant response rating 0-100; settings: 250 g ai/ha, Flood, applied to paddy water, evaluated after 13 days
How it was run: (§1)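 In this flooded assay, 2-leaf seedlings received compound through the water layer, kept at 3 cm over the soil. Plants were held 13 days in a greenhouse and then visually compared with control pots.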

[2] = tested on: barnyardgrass (Echinochloa crusgalli); test: as above; settings: 250 g ai/ha, Flood, applied to paddy water, evaluated after 13 days
How it was run: as §1

[3] = tested on: ducksalad (Heteranthera limosa); test: as above; settings: 250 g ai/ha, Flood, applied to paddy water, evaluated after 13 days
How it was run: as §1

[4] = tested on: rice (Oryza sativa); test: as above; settings: 250 g ai/ha, Flood, applied to paddy water, evaluated after 13 days
How it was run: as §1

[5] = tested on: horseweed (Erigeron canadensis); test: Test A postemergence application, visual injury rating 0-100; settings: 10 days
How it was run: (§2)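 Visual injury ratings (0, no effect; 100, complete control) were assigned relative to untreated plants 10 days after treatment. Test chemicals, formulated with a surfactant-containing non-phytotoxic solvent, were applied in loam-sand soil either as a directed soil spray before emergence or to emerged plants, and plants were kept in a greenhouse.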

[6] = tested on: soybean (Glycine max); test: as above; settings: 10 days
How it was run: as §2

[7] = tested on: wheat (Triticum aestivum); test: as above; settings: 10 days
How it was run: as §2

[8] = tested on: galium (catchweed bedstraw, Galium aparine); test: as above; settings: 10 days
How it was run: as §2

[9] = tested on: blackgrass (Alopecurus myosuroides); test: as above; settings: 10 days
How it was run: as §2

[10] = tested on: green foxtail (Setaria viridis); test: as above; settings: 10 days
How it was run: as §2

[11] = tested on: ryegrass, Italian (italian ryegrass, Lolium multiflorum); test: as above; settings: 10 days
How it was run: as §2

[12] = tested on: corn (Zea mays); test: as above; settings: 10 days
How it was run: as §2

[13] = tested on: barnyardgrass (Echinochloa crus-galli); test: as above; settings: 10 days
How it was run: as §2

[14] = tested on: oat, wild (wild oat, Avena fatua); test: as above; settings: 10 days
How it was run: as §2

[15] = tested on: kochia (Bassia scoparia); test: as above; settings: 10 days
How it was run: as §2

[16] = tested on: palmer (palmer amaranth, palmer pigweed, Amaranthus palmeri); test: as above; settings: 10 days
How it was run: as §2

[17] = tested on: ragweed (common ragweed, Ambrosia artemisiifolia); test: as above; settings: 10 days
How it was run: as §2

[18] = tested on: soybean (Glycine max); test: Test A preemergence soil spray, visual injury rating 0-100; settings: 10 days, 0 = no effect, 100 = complete control
How it was run: as §2

[19] = tested on: wheat (Triticum aestivum); test: as above; settings: 10 days, 0 = no effect, 100 = complete control
How it was run: as §2

[20] = tested on: blackgrass (Alopecurus myosuroides); test: as above; settings: 10 days, 0 = no effect, 100 = complete control
How it was run: as §2

[21] = tested on: green foxtail (Setaria viridis); test: as above; settings: 10 days, 0 = no effect, 100 = complete control
How it was run: as §2

[22] = tested on: ryegrass, Italian (italian ryegrass, Lolium multiflorum); test: as above; settings: 10 days, 0 = no effect, 100 = complete control
How it was run: as §2

[23] = tested on: corn (Zea mays); test: as above; settings: 10 days, 0 = no effect, 100 = complete control
How it was run: as §2

[24] = tested on: barnyardgrass (Echinochloa crus-galli); test: as above; settings: 10 days, 0 = no effect, 100 = complete control
How it was run: as §2

[25] = tested on: oat, wild (wild oat, Avena fatua); test: as above; settings: 10 days, 0 = no effect, 100 = complete control
How it was run: as §2

[26] = tested on: kochia (Bassia scoparia); test: as above; settings: 10 days, 0 = no effect, 100 = complete control
How it was run: as §2

[27] = tested on: palmer (palmer amaranth, palmer pigweed, Amaranthus palmeri); test: as above; settings: 10 days, 0 = no effect, 100 = complete control
How it was run: as §2

[28] = tested on: ragweed (common ragweed, Ambrosia artemisiifolia); test: as above; settings: 10 days, 0 = no effect, 100 = complete control
How it was run: as §2

[29] = 31 g ai/ha, postemergence, 0 = no effect, 100 = complete control
[30] = Postemergence, 125 g ai/ha, 0 is no effect, 100 is complete control

CNC(=O)C1CCC(NC(=O)C2(C)CN(c3cc(F)cc(F)c3)C(=O)O2)C1 (stereo not shown) [Compound 14]
Plant response rating, Sedge, Umbrella (0 to 100 scale, 0 is no effect and 100 is complete control) [1]: 0
Plant response rating, Barnyardgrass (0 to 100 scale, 0 is no effect and 100 is complete control) [2]: 0
Plant response rating, Ducksalad (0 to 100 scale, 0 is no effect and 100 is complete control) [3]: 0
Plant response rating, Rice (0 to 100 scale, 0 is no effect and 100 is complete control) [4]: 0
Horseweed plant response rating (0-100) [5, 29]: 0
Horseweed plant response rating (0 to 100 scale) [5, 30]: 0
Soybean plant response rating (0-100) [6, 29]: 0
Soybean plant response rating (0 to 100 scale) [6, 30]: 0
Wheat plant response rating (0-100) [7, 29]: 0
Wheat plant response rating (0 to 100 scale) [7, 30]: 0
Galium plant response rating (0-100) [8, 29]: 0
Galium plant response rating (0 to 100 scale) [8, 30]: 0
Blackgrass plant response rating (0-100) [9, 29]: 0
Blackgrass plant response rating (0 to 100 scale) [9, 30]: 0
Foxtail, Green plant response rating (0-100) [10, 29]: 0
Foxtail, Green plant response rating (0 to 100 scale) [10, 30]: 0
Ryegrass, Italian plant response rating (0-100) [11, 29]: 0
Ryegrass, Italian plant response rating (0 to 100 scale) [11, 30]: 0
Corn plant response rating (0-100) [12, 29]: 0
Corn plant response rating (0 to 100 scale) [12, 30]: 20
Barnyardgrass plant response rating (0-100) [13, 29]: 0
Barnyardgrass plant response rating (0 to 100 scale) [13, 30]: 0
Oat, Wild plant response rating (0-100) [14, 29]: 0
Oat, Wild plant response rating (0 to 100 scale) [14, 30]: 0
Kochia plant response rating (0-100) [15, 29]: 0
Kochia plant response rating (0 to 100 scale) [15, 30]: 0
Amaranth, Palmer plant response rating (0-100) [16, 29]: 0
Amaranth, Palmer / Pigweed, Palmer plant response rating (0 to 100 scale) [16, 30]: 0
Ragweed plant response rating (0-100) [17, 29]: 0
Ragweed plant response rating (0 to 100 scale) [17, 30]: 0
Soybean plant response rating (0-100) ([18]; 31 g ai/ha): 0
Soybean plant response rating (0 to 100 scale) ([18]; 125 g ai/ha): 0
Wheat plant response rating (0-100) ([19]; 31 g ai/ha): 0
Wheat plant response rating (0 to 100 scale) ([19]; 125 g ai/ha): 0
Blackgrass plant response rating (0-100) ([20]; 31 g ai/ha): 0
Blackgrass plant response rating (0 to 100 scale) ([20]; 125 g ai/ha): 0
Foxtail, Green plant response rating (0-100) ([21]; 31 g ai/ha): 0
Foxtail, Green plant response rating (0 to 100 scale) ([21]; 125 g ai/ha): 0
Ryegrass, Italian plant response rating (0-100) ([22]; 31 g ai/ha): 0
Ryegrass, Italian plant response rating (0 to 100 scale) ([22]; 125 g ai/ha): 0
Corn plant response rating (0-100) ([23]; 31 g ai/ha): 0
Corn plant response rating (0 to 100 scale) ([23]; 125 g ai/ha): 0
Barnyardgrass plant response rating (0-100) ([24]; 31 g ai/ha): 0
Barnyardgrass plant response rating (0 to 100 scale) ([24]; 125 g ai/ha): 0
Oat, Wild plant response rating (0-100) ([25]; 31 g ai/ha): 0
Oat, Wild plant response rating (0 to 100 scale) ([25]; 125 g ai/ha): 0
Kochia plant response rating (0-100) ([26]; 31 g ai/ha): 0
Kochia plant response rating (0 to 100 scale) ([26]; 125 g ai/ha): 0
Amaranth, Palmer plant response rating (0-100) ([27]; 31 g ai/ha): 0
Amaranth, Palmer plant response rating (0 to 100 scale) ([27]; 125 g ai/ha): 0
Ragweed plant response rating (0-100) ([28]; 31 g ai/ha): 0
Ragweed plant response rating (0 to 100 scale) ([28]; 125 g ai/ha): 30
